Three compounds from patent publication US11008551B2, “Method to increase the infectivity of virus particles” (The Trustees of Princeton University, priority 2011, dated 2021) can be followed below.

Experiment [1] deals with HCMV. Briefly: Mevastatin treatment of infected MRC5 cells, released virus quantified by TCID50. In kind it is cell-based, human cytomegalovirus (HCMV). As for the experimental part: In a first experiment, MRC5 cells were left untreated, treated with Mevastatin or mock treated. At 90 minutes post Mevastatin treatment, cells were treated with antibody to LRP1 or tubulin or left untreated. 1 hour post Mevastatin treatment, cells were infected at a multiplicity of 0.1 PFU/cell. At 96 hpi, released virus was used to infect new cells.
(§1) In a second experiment, cells were serum starved for 48 hours then treated with indicated antibodies. 1 hour post antibody treatment, serum-starved, confluent MRC5 cells were treated with various concentrations of cholesterol (+fatty acid-free BSA carrier) for 1 hour then infected at a multiplicity of 0.1 PFU/cell. At 96 hpi, released virus was used to infect new cells. “N” indicates no added cholesterol. Cell-free virus was quantified by a TCID50 assay. Data represents the mean and standard deviation from three independent experiments with three replicates each.

In experiment [2] the test system is HCMV strain AD169 virions. Briefly: Infectivity of gradient purified virions treated with MCβD and/or cholesterol. The class given is cell-based, human cytomegalovirus (HCMV). As for the experimental part: Due to the ability to sequester cholesterol in its hydrophobic pocket, methyl-ß-cyclodextrin (MCβD) removes cholesterol from membranes (Christian, Haynes et al. 1997). Thus, in order to directly test the role of virion envelope cholesterol in HCMV infection, purified virions were treated with various concentrations of MCβD to deplete cholesterol.
(§2) Gradient purified HCMV strain AD169 virions were either mock treated or treated with increasing concentrations of MCβD for 30 min at 37° C. MCβD (50 mM) treated virus was incubated in varying concentrations of cholesterol for 30 min at 37° C. Virus (no MCβD treatment) was incubated in varying concentrations of cholesterol for 30 min at 37° C. In all experiments, infectivity (FIG. 5, left panels) and cholesterol content (FIG. 5, right panels) were determined for the treated samples. Infectivity of untreated virus was set to 100%. Virus cholesterol content was determined using the amplexred (Invitrogen) specrofluorometric assay.
(§3) To determine whether the effect of MCβD could be rescued (and is thus reversible), and moreover, to determine if the loss of infectivity was due to cholesterol depletion, exogenous cholesterol was used to replenish the envelopes of MCβD-treated virions by incubating the virus particles with various amounts of free cholesterol.
(§4) To determine if virus infectivity could be increased by increasing virion cholesterol content alone, gradient purified HCMV virions were incubated with increasing concentrations of cholesterol then gradient purified for a second time.

Experiment [3] relates to HCMV. As to the kind of experiment: Cholesterol supplementation of serum-starved antibody-treated MRC5 cells, cell-free virus by TCID50. The class given is cell-based, human cytomegalovirus (HCMV). The conditions noted are these: serum-starved MRC5 cells also treated with LRP1-specific antibody, 0.1 PFU/cell, 96 hpi. As for the experimental part:
as §1

Experiment [4] concerns HCMV strain AD169 virions. As to the kind of experiment: Virus cholesterol content after MCβD and/or cholesterol treatment, amplex red assay. More on the design: species or system human cytomegalovirus (HCMV). The protocol:
as §2
To confirm that MCβD treatment depleted virus of envelope cholesterol, the cholesterol content of MCβD-depleted virus was determined (FIG. 5A, right).
as §3, §4

For a further experiment, the system named is HCMV strain AD169. As to the kind of experiment: Acid bypass assay of MCβD-treated virus, IE1 expression at 24 hpi. The settings on record: MCβD 50 mM, 3 pfu/cell, pH 4.7 vs 7.4, 24 hpi. The class given is cell-based, human cytomegalovirus (HCMV). As for the experimental part:
It is known that infection of host cells by enveloped viruses relies on the fusion of the viral envelope with either an endosomal membrane or the plasma membrane of the cell. Therefore, experiments were designed to test whether infectivity of MCβD-treated virus can be restored by using an “acid bypass assay” (Mercer and Helenius 2008) to circumvent the normal membrane fusion process during virus entry.
Cells were infected with MCβD (50 mM)-treated or mock-treated HCMV strain AD169 at a multiplicity of 3 pfu/cell, allowed to sit at 4° C. for 30 min to allow virus binding, then treated with buffer at a neutral (7.4) or acidic (4.7) pH for 3 min, washed with PBS, and examined for IE1 expression 24 hours later.
HCMV particles, either treated with MCβD or left untreated, were bound to cells at 4° C., then incubated in a low pH buffer (pH 4.7) to artificially induce the fusion event, thus allowing fusion-deficient viruses to enter the cell and replicate. A neutral pH buffer was used as a control. Virus replication after acid bypass was visualized by IE1 expression at 24 hpi (FIG. 6).

Where [5] appears, read: MCβD (50 mM) treated virus incubated with varying cholesterol, 30 min at 37° C.
[6] abbreviates: virus without MCβD treatment incubated with increasing cholesterol.
Where [7] appears, read: virions treated with increasing MCβD, 30 min at 37° C.

As for `CC[C@H](C)C(=O)O[C@H]1CCC=C2C=C[C@H](C)[C@H](CC[C@@H]3C[C@@H](O)CC(=O)O3)[C@H]21` [Mevastatin], the “reversal of the increased infectivity caused by inhibition of LRP1 activity” value in the experiment on HCMV [1] (MRC5 cells also treated with LRP1 antibody) was “to a limited extent”. The production of infectivity entry with HCMV [1] (MRC5 cells, 0.1 PFU/cell, 96 hpi, Mevastatin) is recorded as “inhibited the production of infectivity in a dose-dependent manner”.

For the compound `CC(C)CCC[C@@H](C)[C@H]1CC[C@H]2[C@@H]3CC=C4C[C@@H](O)CC[C@]4(C)[C@H]3CC[C@]12C` [cholesterol], in experiment [2] (setting [5]), the “HCMV infectivity of MCβD-treated virions” value is “partially restored”. In addition, the virus infectivity result in experiment [2] (setting [6]) was “increased”. Further, the “production of HCMV infectivity” value in the experiment with HCMV [3] is “substantially enhanced”. Further, the “envelope cholesterol content of MCβD-treated virions” value in experiment [4] (setting [5]) was “partially restored”. For the same compound, the “overall cholesterol content of virus” value in experiment [4] (setting [6]) is “increased”.

As for methyl-ß-cyclodextrin [MCβD], in the experiment on HCMV strain AD169, the “ability of treated virus to enter the cell and express IE1 protein after acid bypass” value is listed as “dramatic difference”. Also, in experiment [2] (setting [7]), the HCMV infectivity result was “dose-dependent inhibition”. Also, in experiment [4] (50 mM MCβD), the “depletion of virion cholesterol” value is on record as 90%. The virus cholesterol content result in experiment [4] (setting [7]) is given as “dose-dependent decrease”.
